{"source": "PubChem BioAssay AID256", "about": "(DTP/NCI, 2004)", "system": "CD2F1 mice, L1210 leukemia ip, survival T/C", "test": "NCI In Vivo Anticancer Drug Screen. Data for tumor model L1210 Leukemia (intraperitoneal) in CD2F1 (CDF1) mice", "details": "higher = longer survival", "how_it_was_run": "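Tumor-bearing mice (transplanted tumor) were split into treated and vehicle control groups, and the measured endpoint of each treated group was divided by that of its vehicle controls.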", "key": {"[1]": {"details": "endpoint: mean survival time, dose: 100.0 mg/kg/injection, schedule: Q04DX002 (ip), vehicle: saline with Tween-80"}, "[2]": {"details": "endpoint: mean survival time, dose: 200.0 mg/kg/injection, schedule: Q04DX002 (ip), vehicle: saline with Tween-80"}, "[3]": {"details": "endpoint: mean survival time, dose: 400.0 mg/kg/injection, schedule: Q04DX002 (ip), vehicle: saline with Tween-80"}, "[4]": {"details": "endpoint: mean survival time, dose: 100.0 mg/kg/injection, schedule: Q01DX009 (ip), vehicle: saline with Tween-80"}, "[5]": {"details": "endpoint: mean survival time, dose: 200.0 mg/kg/injection, schedule: Q01DX009 (ip), vehicle: saline with Tween-80"}, "[6]": {"details": "endpoint: mean survival time, dose: 400.0 mg/kg/injection, schedule: Q01DX009 (ip), vehicle: saline with Tween-80"}}, "note": "Inconclusive results and toxic doses are left out. Residues, ends and D or L forms follow the SMILES beside them. *: point of attachment. Octanoyl = CCCCCCCC(=O)*", "data": [{"smiles": "CC(=O)CC(=O)C(C)(C)C(C)=O", "values": [{"measurement": "T/C", "setting": "endpoint: mean survival time, dose: 100.0 mg/kg/injection, schedule: Q01DX001 (ip), vehicle: saline with Tween-80", "result": "98 % of control"}, {"measurement": "T/C", "setting": "endpoint: mean survival time, dose: 100.0 mg/kg/injection, schedule: Q01DX009 (ip), vehicle: saline sonified", "result": "97 % of control"}, {"measurement": "T/C", "setting": "[1]", "result": "117 % of control"}, {"measurement": "T/C", "setting": "endpoint: mean survival time, dose: 200.0 mg/kg/injection, schedule: Q01DX001 (ip), vehicle: saline with Tween-80", "result": "104 % of control"}, {"measurement": "T/C", "setting": "endpoint: mean survival time, dose: 200.0 mg/kg/injection, schedule: Q01DX009 (ip), vehicle: saline sonified", "result": "105 % of control"}, {"measurement": "T/C", "setting": "[2]", "result": "102 % of control"}, {"measurement": "T/C", "setting": "endpoint: mean survival time, dose: 400.0 mg/kg/injection, schedule: Q01DX001 (ip), vehicle: saline with Tween-80", "result": "101 % of control"}, {"measurement": "T/C", "setting": "endpoint: mean survival time, dose: 400.0 mg/kg/injection, schedule: Q01DX009 (ip), vehicle: saline sonified", "result": "100 % of control"}, {"measurement": "T/C", "setting": "[3]", "result": "98 % of control"}]}, {"smiles": "CC(NC=O)c1c[nH]c(=O)[nH]c1=O", "note": "(stereo not drawn)", "values": [{"measurement": "T/C", "setting": "[4]", "result": "100 % of control"}, {"measurement": "T/C", "setting": "[5]", "result": "97 % of control"}, {"measurement": "T/C", "setting": "[6]", "result": "97 % of control"}]}, {"smiles": "COc1cc2cc3c4cc(OC)c(OC)cc4cc[n+]3c(C)c2cc1OC", "values": [{"measurement": "T/C", "setting": "endpoint: mean survival time, dose: 100.0 mg/kg/injection, schedule: Q01DX001 (ip), vehicle: saline", "result": "120 % of control"}, {"measurement": "T/C", "setting": "endpoint: mean survival time, dose: 132.0 mg/kg/injection, schedule: Q04DX003 (ip), vehicle: saline sonified", "result": "122 % of control"}, {"measurement": "T/C", "setting": "endpoint: mean survival time, dose: 200.0 mg/kg/injection, schedule: Q01DX001 (ip), vehicle: saline", "result": "122 % of control"}, {"measurement": "T/C", "setting": "endpoint: mean survival time, dose: 200.0 mg/kg/injection, schedule: Q04DX003 (ip), vehicle: saline sonified", "result": "114 % of control"}, {"measurement": "T/C", "setting": "endpoint: mean survival time, dose: 200.0 mg/kg/injection, schedule: Q04DX003 (ip), vehicle: saline", "result": "122 % of control"}, {"measurement": "T/C", "setting": "endpoint: mean survival time, dose: 300.0 mg/kg/injection, schedule: Q04DX003 (ip), vehicle: saline sonified", "result": "123 % of control"}, {"measurement": "T/C", "setting": "endpoint: mean survival time, dose: 400.0 mg/kg/injection, schedule: Q01DX001 (ip), vehicle: saline", "result": "109 % of control"}, {"measurement": "T/C", "setting": "endpoint: mean survival time, dose: 400.0 mg/kg/injection, schedule: Q04DX003 (ip), vehicle: saline", "result": "116 % of control"}]}, {"smiles": "CCCCCCCC(=O)NCC(=O)NCC(=O)O", "note": "(Octanoyl-Gly-Gly-OH)", "values": [{"measurement": "T/C", "setting": "endpoint: mean survival time, dose: 6.25 mg/kg/injection, schedule: Q01DX001 (ip), vehicle: Klucel (hydroxypropylcellulose) (HPC)", "result": "97 % of control"}, {"measurement": "T/C", "setting": "endpoint: mean survival time, dose: 12.5 mg/kg/injection, schedule: Q01DX001 (ip), vehicle: Klucel (hydroxypropylcellulose) (HPC)", "result": "95 % of control"}, {"measurement": "T/C", "setting": "endpoint: mean survival time, dose: 25.0 mg/kg/injection, schedule: Q01DX001 (ip), vehicle: Klucel (hydroxypropylcellulose) (HPC)", "result": "100 % of control"}, {"measurement": "T/C", "setting": "endpoint: mean survival time, dose: 50.0 mg/kg/injection, schedule: Q01DX001 (ip), vehicle: Klucel (hydroxypropylcellulose) (HPC)", "result": "93 % of control"}]}, {"smiles": "COc1cc(C=Nc2ccc(-c3nc(C)sc3C)cc2)ccc1N(CCCl)CCCl", "values": [{"measurement": "T/C", "setting": "endpoint: mean survival time, dose: 25.0 mg/kg/injection, schedule: Q01DX001 (ip), vehicle: carboxymethylcellulose (CMC)", "result": "155 % of control"}, {"measurement": "T/C", "setting": "endpoint: mean survival time, dose: 50.0 mg/kg/injection, schedule: Q01DX001 (ip), vehicle: carboxymethylcellulose (CMC)", "result": "97 % of control"}]}, {"smiles": "O=Cc1cc(Cl)c(O)c(Cl)c1", "values": [{"measurement": "T/C", "setting": "endpoint: mean survival time, dose: 100.0 mg/kg/injection, schedule: Q04DX003 (ip), vehicle: Klucel (hydroxypropylcellulose) (HPC)", "result": "94 % of control"}, {"measurement": "T/C", "setting": "endpoint: mean survival time, dose: 200.0 mg/kg/injection, schedule: Q04DX003 (ip), vehicle: Klucel (hydroxypropylcellulose) (HPC)", "result": "100 % of control"}]}, {"smiles": "N/C(=N/N=C/c1cc(Br)cc(Br)c1O)NO", "values": [{"measurement": "T/C", "setting": "endpoint: median survival time, dose: 12.5 mg/kg/injection, schedule: Q01DX005 (ip), vehicle: suspension in saline", "result": "105 % of control"}, {"measurement": "T/C", "setting": "endpoint: median survival time, dose: 25.0 mg/kg/injection, schedule: Q01DX005 (ip), vehicle: suspension in saline", "result": "100 % of control"}, {"measurement": "T/C", "setting": "endpoint: median survival time, dose: 50.0 mg/kg/injection, schedule: Q01DX005 (ip), vehicle: suspension in saline", "result": "105 % of control"}, {"measurement": "T/C", "setting": "endpoint: median survival time, dose: 100.0 mg/kg/injection, schedule: Q01DX005 (ip), vehicle: suspension in saline", "result": "116 % of control"}]}, {"smiles": "CC(=O)OC1C(OC(C)=O)C(OC(C)=O)C(OC(C)=O)C(OC(C)=O)C1OC(C)=O", "note": "(stereo not drawn)", "values": [{"measurement": "T/C", "setting": "[1]", "result": "100 % of control"}, {"measurement": "T/C", "setting": "[2]", "result": "86 % of control"}, {"measurement": "T/C", "setting": "[3]", "result": "93 % of control"}]}, {"smiles": "CC(C)(OC(=O)C(NC=O)C(C)(C)S)OC(=O)C(NC=O)C(C)(C)S", "note": "(stereo not drawn)", "values": [{"measurement": "T/C", "setting": "[4]", "result": "101 % of control"}, {"measurement": "T/C", "setting": "[5]", "result": "101 % of control"}, {"measurement": "T/C", "setting": "[6]", "result": "101 % of control"}]}, {"smiles": "C=C(C)C1CCC2(C(=O)OC)CCC3(C)C(CCC4C5(C)CCC(OC6CCCCO6)C(C)(C)C5CCC43C)C12", "note": "(stereo not drawn)", "values": [{"measurement": "T/C", "setting": "endpoint: mean survival time, dose: 6.25 mg/kg/injection, schedule: Q04DX002 (ip), vehicle: saline with Tween-80", "result": "103 % of control"}, {"measurement": "T/C", "setting": "endpoint: mean survival time, dose: 12.5 mg/kg/injection, schedule: Q04DX002 (ip), vehicle: saline with Tween-80", "result": "95 % of control"}, {"measurement": "T/C", "setting": "endpoint: mean survival time, dose: 25.0 mg/kg/injection, schedule: Q04DX002 (ip), vehicle: saline with Tween-80", "result": "86 % of control"}]}, {"smiles": "C1=[N+](c2ccccc2)CCN1c1ccccc1", "values": [{"measurement": "T/C", "setting": "endpoint: mean survival time, dose: 75.0 mg/kg/injection, schedule: Q01DX001 (ip), vehicle: saline", "result": "95 % of control"}, {"measurement": "T/C", "setting": "endpoint: mean survival time, dose: 150.0 mg/kg/injection, schedule: Q01DX001 (ip), vehicle: saline", "result": "98 % of control"}]}]}
